Measured values as given in US4127671A, “P-acetamidophenyl diethylaminoacetate” (Societe Anonyme dite: HEXACHIME, priority 1977, dated 1978).

What was measured:
[1] = system: reactions of pain (abdominal twists), phenyl benzoquinone; assay: analgesic action: inhibition of phenyl benzoquinone-induced reactions of pain (abdominal twists); assay type: in vivo, male mice (SPF, OFI strain); conditions: mice, pain reactions counted from 5 to 10 minute
Description: (§1) The analgesic action of the product was determined by the following method: batches of 6 male mice (SPF, OFI strain), weighing 19 to 20 g, received the test product by intravenous means. 0.3 c.c. per mouse of a 0.02% solution of phenyl benzoquinone was simultaneously injected by intraperitoneal means and the number of reactions of pain (abdominal twists) was counted from the 5 to the 10 minute after the latter treatment.
The following Table I gives the inhibitory percentage of these reactions.

[2] = pharmacological properties compared with paracetamol; assay type: in vivo
Description: as §1
The antihyperthermisant action of the product according to the invention was determined by the following method: batches of 5 male Fauve de Bourgogne rabbits weighing 2 to 3 kg receive by intraveneous means 1 c.c./kg of an endotoxin solution of Salmonella abortus equivalent to 1 γ/kg in the physiological serum.
Two and a half hours later, the test product was administered in a physiological solution by intraveneous means.
The rectal temperature was recorded at regular intervals by an Ellab thermocouple. The probe was pressed 80 mm in.

[3] = release of p-acetamidophenol in the organism
solubility in water = assay type: physicochemical; conditions: novel derivative
[4] = stability of aqueous solutions; assay type: physicochemical; conditions: with the passage of time

release of p-acetamidophenol [3]: rapidly releases p-acetamidophenol
solubility in water (solubility in water): very soluble in water
stability of aqueous solutions [4]: stable with the passage of time
Structure (SMILES): CCN(CC)CC(=O)Oc1ccc(NC(C)=O)cc1 [p-acetamidophenyl diethylaminoacetate]
% of inhibition ([1]; 8 mg/kg I.V.): 26%
% of inhibition ([1]; 16 mg/kg I.V.): 41%
% of inhibition ([1]; 32 mg/kg I.V.): 68%
% of inhibition ([1]; 64 mg/kg I.V.): 94%
pharmacological properties [2]: comparable to those of paracetamol
